# Measured values: patent publication EP4186500A1, “MEK INHIBITORS FOR THE PREVENTION AND TREATMENT OF LONG COVID SYNDROME” (Atriva Therapeutics GmbH, priority 2021, dated 2023)
# Assays:
# [1] = human, in vivo
# [2] = tested on: SARS-CoV-2 viral gene RdRP; assay type: cell-based, Severe acute respiratory syndrome coronavirus; conditions: Vero cells, MOI 0.01; 50 µM ATR-002; 24, 36 and 48 hpi
# [3] = tested on: Human T-cell Inflammation; experiment: T-cell inflammation inhibition assay (ConA and PHA stimulation) in PBMC; conditions: 100, 50, and 25 µM, 24 hours, PBMC from three human donors
# SARS-CoV-2 (FI) = assay type: cell-based, Severe acute respiratory syndrome coronavirus; conditions: primary human ALI cultures, MOI 1.0; 50 µM and 100 µM; three cultures
# ACE2 = ACE2 expression in Calu-3 cells (immunofluorescence microscopy and WES); assay type: cell-based, Homo sapiens; conditions: 100µM ATR-002, 24h
# Experimental: Then the wells were washed once with PBS and fixed with 300µL/well 4% PFA in PBS for 10 minutes at room temperature. After another wash step with PBS, the cells were blocked for 1 hour with 1% BSA in PBS at room temperature before incubation with 200µL/well of the primary antibody (Goat-Anti-ACE2 antibody (R&D systems; Cat.: AF933; Lot.:HOK0320061) (1:20) in 1% BSA in PBS for 1h at room temperature on a shaker (100 rpm). Afterwards, the cells were washed three times with PBS before incubation with 200µL/well of the secondary antibody Donkey anti-Goat IgG (H+L) Highly Cross-Absorbed Secondary Antibody, Alexa Fluor Plus 647 (Invitrogen; Ref.: A32849TR; Lot.:VE306231) (1:200) in 1% BSA in PBS for 45 minutes at room temperature on a shaker. After another three wash steps with PBS, 200µL Rhodamine Phalloidin (Invitrogen; Ref.: R415; Lot.: 2157163) (1:40 in 1% BSA in PBS) were added to each well and incubated for 30 minutes at room temperature on a shaker. After two final wash steps with PBS, the cover slips were removed from the wells and mounted on microscope slides with Roti®-Mount FluorCare DAPI (Roth; Art.-Nr.: HP20.1; Lot.: 080293945). The slides were let dry at 4°C in the dark and then analysed using a confocal laser scanning microscope (LSM800, Zeiss).
# memory T cells = experiment: 12-day T cell clonal expansion with IFN-γ FluoroSpot (memory T cell reactivation)
# SARS-CoV-2 strain FI = assay type: cell-based, Severe acute respiratory syndrome coronavirus; conditions: Vero cells, MOI 0.01; 50 µM ATR-002; 24h, 36h and 48h
# [4] = tested on: Human T-cell Inflammation; experiment: T-cell inflammation inhibition assay (Anti-CD3 stimulation) in PBMC; conditions: 100, 50, and 25 µM, 24 hours, PBMC from three human donors
# MCP-1 = MCP-1 expression in SARS-CoV-2 infected CaCo2 cells; assay type: cell-based, Homo sapiens; conditions: high amount of ATR-002 necessary
# SARS-CoV-2 = assay type: cell-based, Severe acute respiratory syndrome coronavirus; conditions: Caco-2, Vero E6 and Calu-3 cells; 100 µM, 75 µM, 50 µM; 24 hours
smiles,measurement,setting,value
"O=C(O)c1ccc(F)c(F)c1Nc1ccc(I)cc1Cl [ATR-002, 2-(2-chloro-4-iodophenylamino)-N-3,4-difluoro benzoic acid]",blood levels (pharmacokinetics exposure),[1],confirm the maintenance of clinically relevant blood levels
same,safety and tolerability,[1],safe and well tolerable
same,safety of each dose cohort (Safety Review Committee),[1],considered to be safe
same,serious adverse events,[1],no serious adverse events
same,SARS-CoV-2 viral gene RdRP genome copy number,[2],confirmed
same,inhibition of cytokine/chemokine stimulation,[3]; ConA stimulation,"significant, dose dependent inhibition"
same,inhibition of cytokine/chemokine stimulation,[3]; PHA stimulation,"significant, dose dependent inhibition"
same,production of progeny viral particles,SARS-CoV-2 (FI),completely blocked the production of progeny viral particles
same,ACE2 expression,ACE2,reduction of ACE2
same,"Spot counts, representing the number of activated T cells","memory T cells; CEF peptide stimulated PBMCs, three donors, 5 or 10 pg/mL on three different time points, 12 days",not reduced
same,cell proliferation/density by microscope,memory T cells; in vitro culture of PBMC,no visible effect on cell proliferation/density
same,viral load (virus titer by plaque assay),SARS-CoV-2 strain FI,lower viral load than control cells
same,inhibition of cytokine/chemokine stimulation,[4],"significant, dose dependent inhibition"
same,MCP-1 expression,MCP-1,able to reduce MCP-1 expression
same,virus titer via RT-qPCR (N gene),SARS-CoV-2,the effect seen on all cell types was comparable
